Several values for one entry are separate records, joined by “and”; a condition that tells them apart may be missing. Equal values may be shown once. Read-outs that look alike come from different tables or passages of the source. No end group written: not given here. Bounds are passed on as bounds.

The values that follow come from publication PMC5648786, “Characterization of a dual function macrocyclase enables design and use of efficient macrocyclization substrates” (Nature Communications, 2017).

Data set [1] has as its target T1, GmPOPB-S577A (inactive mutant) (Galerina marginata, UniProt H2E7Q8, S577A).
T1 construct: His-tag (TEV-cleavable) (cleaved yes); made in house; host or cells: E. coli BL21(DE3)
T1 sequence (H2E7Q8 1-730 S577A): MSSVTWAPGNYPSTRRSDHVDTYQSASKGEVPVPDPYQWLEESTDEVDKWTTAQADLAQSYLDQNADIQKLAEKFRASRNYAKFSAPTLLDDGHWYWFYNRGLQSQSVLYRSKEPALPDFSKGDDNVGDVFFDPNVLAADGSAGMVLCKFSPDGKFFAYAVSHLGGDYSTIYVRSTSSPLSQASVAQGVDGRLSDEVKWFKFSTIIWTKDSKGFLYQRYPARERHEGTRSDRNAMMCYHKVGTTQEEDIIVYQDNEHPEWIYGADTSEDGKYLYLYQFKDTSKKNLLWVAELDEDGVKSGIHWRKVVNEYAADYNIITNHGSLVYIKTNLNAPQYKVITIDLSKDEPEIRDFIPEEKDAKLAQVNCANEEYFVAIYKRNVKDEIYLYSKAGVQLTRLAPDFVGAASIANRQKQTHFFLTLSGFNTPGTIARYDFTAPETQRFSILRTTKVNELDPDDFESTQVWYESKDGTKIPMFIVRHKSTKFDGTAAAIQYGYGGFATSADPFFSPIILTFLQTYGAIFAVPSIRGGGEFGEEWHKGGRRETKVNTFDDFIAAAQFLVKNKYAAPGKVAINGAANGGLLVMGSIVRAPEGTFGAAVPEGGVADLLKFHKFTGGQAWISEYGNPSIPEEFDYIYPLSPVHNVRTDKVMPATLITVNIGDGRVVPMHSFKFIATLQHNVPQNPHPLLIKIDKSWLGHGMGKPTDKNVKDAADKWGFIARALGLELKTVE
The data set is described as follows: Isothermal titration calorimetry, peptide binding to inactive mutant GmPOPB_S577A. As to conditions: for -TΔS / ΔG / ΔH / Kd / Binding detected by ITC: ITC; for -TΔS / ΔG / ΔH / Kd: 20 °C; for -TΔS / ΔG / ΔH: average ± SEM; for Kd: peptide titrated into GmPOPB_S577A, 50 mM Tris pH 8.0, 50 mM NaCl, 10 mM DTT, single-site model, n fixed at 1.0, average ± SEM of at least 2 measurements; for Binding detected by ITC: peptide concentrations up to 1 mM.

The subject of data set [2] is CC[C@H](C)[C@H](N)C(=O)N[C@@H](Cc1c[nH]c2ccccc12)C(=O)NCC(=O)N[C@H](C(=O)NCC(=O)N[C@@H](CS)C(=O)N[C@@H](CC(N)=O)C(=O)N1CCC[C@H]1C(=O)N[C@@H](Cc1c[nH]c2ccccc12)C(=O)N[C@H](C(=O)N[C@@H](C)C(=O)N[C@@H](CCC(=O)O)C(=O)N[C@@H](Cc1c[nH]cn1)C(=O)N[C@H](C(=O)O)C(C)C)[C@@H](C)O)[C@@H](C)CC. The experiment in a line: purified protein, by the assay type. As to conditions: pH 8.0.
Protocol: (§1) Comparison between distinct substrates was performed in 50 mM Tris pH 8.0, 50 mM NaCl, 10 mM DTT with varying concentrations of substrates at room temperature. All reactions were performed in duplicates. Reactions were started by adding GmPOPB (50 nM for GmAMA1_C6S, 1 μM for the 13mer and 14mer, and 20 nM for other substrates) to the assay mixture containing buffer and peptide. Reactions were quenched at several time points by adding 50 μL reaction mixture to 20 μL 6% TFA. Reactants were separated from products for quantification by injecting 50 μL of each quenched time point mix onto a ZORBAX SB-C18, 5 µm, 9.4 × 50 mm (Agilent) column connected to an Agilent LC-MS (G6130B Single Quad, Agilent Technologies). Reactants were separated from products using a gradient from H2O containing 0.1% TFA or 0.1% formic acid and 5% acetonitrile to 50% acetonitrile, at 1.5 ml/min for 8 min. […] The sum of product+substrate was assumed equal to the total initial amount of substrate, product converted from % to concentration. This value was divided by concentration of enzyme present to yield v/E t (min^−1). […] For progress curves with the 35mer substrate, measurements were triplicate and quantification relied on ion counts from mass spectrometry. […] Authentic cyclic peptide was quantified by UV absorbance. […] Kinetic data were fitted to a Michaelis–Menten equation using GraphPad Prism, and values reported are average and standard error of the mean.

Data set [3] concerns CC[C@H](C)[C@H](N)C(=O)N[C@@H](Cc1c[nH]c2ccccc12)C(=O)NCC(=O)N[C@H](C(=O)NCC(=O)N[C@@H](CS)C(=O)N[C@@H](CC(N)=O)C(=O)N1CCC[C@H]1C(=O)N[C@@H](Cc1c[nH]c2ccccc12)C(=O)N[C@H](C(=O)N[C@@H](C)C(=O)N[C@@H](CCC(=O)O)C(=O)N[C@@H](Cc1c[nH]cn1)C(=O)O)[C@@H](C)O)[C@@H](C)CC. The data set is described as follows: purified protein, by the assay type. As to conditions: pH 8.0.
Protocol: as §1
Data set [4] concerns CC[C@H](C)[C@H](NC(=O)CNC(=O)[C@H](Cc1c[nH]c2ccccc12)NC(=O)[C@@H](NC(=O)[C@@H]1CCCN1C(=O)[C@H](CC(C)C)NC(=O)[C@H](CCCNC(=N)N)NC(=O)[C@@H](NC(=O)[C@H](C)NC(=O)[C@H](CC(N)=O)NC(=O)[C@@H](NC(=O)[C@H](CC(=O)O)NC(=O)[C@H](Cc1ccccc1)NC(=O)[C@@H](N)CCSC)[C@@H](C)O)[C@@H](C)O)[C@@H](C)CC)C(=O)NCC(=O)N[C@@H](CS)C(=O)N[C@@H](CC(N)=O)C(=O)N1CCC[C@H]1C(=O)N[C@@H](Cc1c[nH]c2ccccc12)C(=O)N[C@H](C(=O)N[C@@H](C)C(=O)N[C@@H](CCC(=O)O)C(=O)N[C@@H](Cc1c[nH]cn1)C(=O)N[C@H](C(=O)N[C@@H](CC(=O)O)C(=O)N[C@@H](CCC(N)=O)C(=O)N[C@H](C(=O)N[C@@H](CC(C)C)C(=O)N[C@@H](C)C(=O)N[C@@H](CO)C(=O)NCC(=O)N[C@@H](CC(N)=O)C(=O)N[C@@H](CC(=O)O)C(=O)N[C@H](C(=O)N[C@@H](CS)C(=O)O)[C@@H](C)CC)[C@@H](C)O)C(C)C)[C@@H](C)O. The experiment in a line: purified protein, by the assay type. As to conditions: pH 8.0.
Protocol: as §1

Data set [5] in a line: Peptide solubility when preparing ITC ligand solutions. The format is physicochemical. As to conditions: peptide ligand solution for ITC. The procedure:
Supplementary Table 3 Thermodynamic parameters obtained by ITC.
Peptide Sequence Kd (μM) ΔG ΔH -TΔS N
(kcal mol-1) (kcal mol-1) (kcal mol-1) measurements
9mer IW GIGCNPW ND ND ND ND
ND – peptide solubility was lower than 300 μM and measurements could not be
Errors reported are standard error of the mean using the replicates indicated in the
table and the fitted values using Malvern data analysis software.

Data set [6] concerns the target T1, GmPOPB-S577A (inactive mutant). As to conditions: ITC, GmPOPB_S577A, cited from earlier work. The text has this:
Peptide Sequence Kd (μM) ΔG ΔH -TΔS N (kcal mol-1) (kcal mol-1) (kcal mol-1) measurements 9mer IW GIGCNPW ND ND ND ND 10mer IW GIGCNPW T 83 ± 17 -5.5 ± 0.1 -3.1 ± 0.5 -2.4 ± 0.3 2 11mer IW GIGCNPW TA 39 ± 18 -5.9 ± 0.3 -1.5 ± 0.7 […] 2 12mer IW GIGCNPW TAE 21 ± 5 -6.3 ± 0.1 -1.0 ± 0.3 -5.3 ± 0.4 2 13mer IW GIGCNPW TAEH 2.4 ± 0.1 -7.3 ± 0.1 -0.6 ± 0.2 -6.9 ± 0.2 2 14mer IW GIGCNPW TAEHV 9.5 ± 1.1 -6.7 ± 0.1 -0.9 ± 0.2 -5.8 ± 0.2 2 9mer- […] 121 ± 19 -5.3 ± 0.1 -6.4 ± 1.6 2.6 ± 1.5 3 recognition sequence 12mer- ...

The next data set has as its target T2, GmPOPB-S577A (Galerina marginata, UniProt H2E7Q8, S577A).
T2 sequence: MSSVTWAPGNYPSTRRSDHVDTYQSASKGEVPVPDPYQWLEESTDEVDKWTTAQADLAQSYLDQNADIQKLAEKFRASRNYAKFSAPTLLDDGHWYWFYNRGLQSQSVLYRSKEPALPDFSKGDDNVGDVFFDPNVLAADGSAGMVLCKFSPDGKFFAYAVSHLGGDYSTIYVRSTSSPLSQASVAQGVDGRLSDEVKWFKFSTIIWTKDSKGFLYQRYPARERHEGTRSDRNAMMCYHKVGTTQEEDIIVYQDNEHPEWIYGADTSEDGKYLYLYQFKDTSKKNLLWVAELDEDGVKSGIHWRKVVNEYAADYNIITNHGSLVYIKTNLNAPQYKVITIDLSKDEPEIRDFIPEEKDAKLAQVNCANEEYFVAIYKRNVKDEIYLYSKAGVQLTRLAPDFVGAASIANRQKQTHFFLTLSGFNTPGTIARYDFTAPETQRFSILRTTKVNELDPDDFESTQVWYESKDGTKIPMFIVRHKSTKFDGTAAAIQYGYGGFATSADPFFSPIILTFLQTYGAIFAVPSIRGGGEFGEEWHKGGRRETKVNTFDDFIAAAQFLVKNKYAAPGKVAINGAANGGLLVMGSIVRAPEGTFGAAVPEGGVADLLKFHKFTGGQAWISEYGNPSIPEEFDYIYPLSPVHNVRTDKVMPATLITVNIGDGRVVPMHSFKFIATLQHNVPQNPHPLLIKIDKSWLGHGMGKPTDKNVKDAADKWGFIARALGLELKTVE
The experiment in a line: ITC. As to conditions: both partners purified.

Where [7] appears, read: average ± SEM, previously published ref 21.

For the molecule `CC[C@H](C)[C@H](NC(=O)CNC(=O)[C@H](Cc1c[nH]c2ccccc12)NC(=O)[C@@H](NC(=O)[C@@H]1CCCN1C(=O)[C@H](CC(C)C)NC(=O)[C@H](CCCNC(=N)N)NC(=O)[C@@H](NC(=O)[C@H](C)NC(=O)[C@H](CC(N)=O)NC(=O)[C@@H](NC(=O)[C@H](CC(=O)O)NC(=O)[C@H](Cc1ccccc1)NC(=O)[C@@H](N)CCSC)[C@@H](C)O)[C@@H](C)O)[C@@H](C)CC)C(=O)NCC(=O)N[C@@H](CS)C(=O)N[C@@H](CC(N)=O)C(=O)N1CCC[C@H]1C(=O)N[C@@H](Cc1c[nH]c2ccccc12)C(=O)N[C@H](C(=O)N[C@@H](C)C(=O)N[C@@H](CCC(=O)O)C(=O)N[C@@H](Cc1c[nH]cn1)C(=O)N[C@H](C(=O)N[C@@H](CC(=O)O)C(=O)N[C@@H](CCC(N)=O)C(=O)N[C@H](C(=O)N[C@@H](CC(C)C)C(=O)N[C@@H](C)C(=O)N[C@@H](CO)C(=O)NCC(=O)N[C@@H](CC(N)=O)C(=O)N[C@@H](CC(=O)O)C(=O)N[C@H](C(=O)N[C@@H](CS)C(=O)O)[C@@H](C)CC)[C@@H](C)O)C(C)C)[C@@H](C)O` [35mer], in data set [1] (GmPOPB_S577A), the “-TΔS” value is -1.2 ± 0.4 kcal/mol and the ΔG is -9.3 ± 0.1 kcal/mol.
For the molecule GmPOPB (Galerina marginata CBS 339.88), in data set [2], the Michaelis-Menten constant (Km) is 380 µM, the kcat was 0.00967 s⁻¹ and the catalytic efficiency (kcat/Km) was 16.7 ± 1.7 M⁻¹ s⁻¹. Also, in data set [3], the Km is 24.4 ± 5.2 µM and 25 µM; the kcat was 0.00817 ± 0.0005 s⁻¹ and 0.00817 s⁻¹; the kcat/Km is 333 ± 67 M⁻¹ s⁻¹. Further, in data set [4], the Km came out at 23 ± 11 µM, the kcat came to 0.0533 ± 0.0067 s⁻¹ and the specificity constant (kcat/Km) amounted to 2330 ± 1200 M⁻¹ s⁻¹.
The molecule IWGIGCNPW [9mer] gave a solubility in data set [5] (aqueous buffer, Tris pH 8.0 buffer with DTT) of under 300 µM. In addition, in data set [5], the “Peptide solubility” value is on record as “not sufficiently soluble for analysis”.
Consider IWGIGCNPWT [10mer], for which, in data set [1] (GmPOPB_S577A), the “-TΔS” value was -2.4 ± 0.3 kcal/mol, the ΔG is -5.5 ± 0.1 kcal/mol and the ΔH is -3.1 ± 0.5 kcal/mol. In data set [1], this molecule yielded a Kd of 83 ± 17 µM.
In data set [1] (GmPOPB_S577A), IWGIGCNPWTA [11mer] came in with a ΔG of -5.9 ± 0.3 kcal/mol and a ΔH of -1.5 ± 0.7 kcal/mol. The dissociation constant Kd in data set [1] was 39 ± 18 µM.
Take IWGIGCNPWTAE [12mer]: in data set [1] (GmPOPB_S577A), the “-TΔS” value was -5.3 ± 0.4 kcal/mol, the ΔG is -6.3 ± 0.1 kcal/mol and the ΔH was -1.0 ± 0.3 kcal/mol. The molecule also came in with a Kd in data set [1] of 21 ± 5 µM.
Regarding IWGIGCNPWTAEH [13mer], in data set [1] (GmPOPB_S577A), the “-TΔS” value is -6.9 ± 0.2 kcal/mol, the ΔG is -7.3 ± 0.1 kcal/mol and the ΔH was -0.6 ± 0.2 kcal/mol. Moreover, the Kd in data set [1] was determined as 2.4 ± 0.1 µM. Further, in data set [1] (ratio of ITC Kd values, GmPOPB_S577A), the “Difference in affinity (reduction in binding) between the 35mer and the 13mer” value was ~ 20 fold.
In the case of MFDTNATRLP [leader peptide], the “Binding detected by ITC” value in data set [1] (GmPOPB_S577A) is reported as “no detectable binding”; in data set [1] (GmPOPB_S577A, listed as 10-residue leader), “does not bind”.
Consider TLASGNDIC [9mer-recognition sequence], for which, in data set [1] (GmPOPB_S577A), the “-TΔS” value came out at 2.6 ± 1.5 kcal/mol, the ΔG was -5.3 ± 0.1 kcal/mol and the ΔH was -6.4 ± 1.6 kcal/mol.
Turning to “VDQTLASGNDIC [12mer-recognition sequence]”, in data set [1] (GmPOPB_S577A), the “-TΔS” value is 16.3 ± 3.0 kcal/mol, the ΔG was -7.1 ± 0.1 kcal/mol and the ΔH was -23.5 ± 3.1 kcal/mol.
Turning to “WTAEHVDQTLASGNDIC [17mer-recognition sequence]”, the dissociation constant Kd in data set [6] (20 °C, 50 mM Tris pH 8.0, 50 mM NaCl, 10 mM DTT, average ± SEM, previously published ref 21) was 0.43 ± 0.01 µM. Besides, in data set [6] (setting [7]), the “-TΔS” value was 1.7 ± 0.4 kcal/mol, the ΔG is -8.5 ± 0.1 kcal/mol and the ΔH is -10.2 ± 0.4 kcal/mol. Besides, in data set [6], the “Difference in ΔG between the 17mer recognition sequence and the 25mer peptide” value is 1.34 kcal/mol. The Kd in data set [6] (previously published ref 21) is 0.43 ± 0.01 µM.
Regarding TLASGNDIC [truncated recognition sequence TLASGNDIC (9 residues)], the equilibrium dissociation constant (Kd) in the data set with GmPOPB-S577A stood at 121 µM.
Regarding VDQTLASGNDIC [truncated recognition sequence VDQTLASGNDIC (12 residues)], in the data set with GmPOPB-S577A, the Kd was found to be 5 µM.
